Series [1] addresses T1, Dictyostelium myosin-5b (Dictyostelium discoideum, UniProt P54697).
T1 construct: comprising amino acids 1-698, 1-765, and 1-839 respectively; made in house
The series can be described thus: Basal ATPase activity, Dictyostelium myosin-5b. The class given is biochemical. As to conditions: read-out: concentration required for half-maximal inhibition of basal ATPase activity. The text has this: (§1) FIG. 18: KIN-68-inhibition of the basal ATPase activity of Dictyostelium myosin-1E and myosin-5b.

The subject of series [2] is myosin-1 isoforms. The series can be described thus: Selectivity for myosin isoforms (Example 3), myosin-1. The class given is biochemical.
Description: In this context, preferred selectivity means a more than 20-fold smaller IC50 value compared to fast skeletal muscle myosin-2 and other references myosins.
Series [3] has as its target T2, Dictyostelium myosin-1E (Dictyostelium discoideum, UniProt Q03479).
T2 construct: comprising amino acids 1-698, 1-765, and 1-839 respectively; made in house
Description: Basal ATPase activity, Dictyostelium myosin-1E. In kind it is biochemical. As to conditions: read-out: concentration required for half-maximal inhibition of basal ATPase activity.
Excerpt: as §1

For series [4], the target named is T3, Dictyostelium myosin-2 (Dictyostelium discoideum, UniProt P08799, C312Y/S249N).
T3 construct: comprising amino acids 1-698, 1-765, and 1-839 respectively; made in house
Description: Actin-activated ATPase activity (NADH-coupled assay), Dictyostelium myosin-2. The class given is biochemical. Particulars: 30 μM actin; read-out: IC50, ATPase activity in the presence of actin. On the procedure: Based on the structure of the myosin-2 motor domain with bound PBP, we performed molecular modeling studies to elucidate the specificity of PBP-binding to myosins from different classes. […] To test the predictions from the modeling studies, we determined actin-activated ATPase activities in the presence of 0 to 150 μM PBP with rabbit skeletal myosin-2 heavy meromyosin (HMM), myosin-5a isolated from chicken brain, and recombinant Dictyostelium myosin class-1, 2 and 5 motor-domain constructs (FIG. 9a). […] The concentrations of PBP required for half-maximal inhibition of the different myosin motors was calculated from fitting the data to hyperbolae. […] To determine the extend to which PBP impairs the coupling between the actin- and nucleotide-binding sites of myosin, we measured the ATP turn-over rates of Dictyostelium myosin-2 and myosin-5b motor domain constructs over the range from 0 to 50 μM F-actin in the absence and presence of 25 μM PBP.
Values for the rate of maximum ATP turnover (kcat), the concentration of F-actin at which half-maximal activation is achieved (Kapp), and the apparent second order rate constant for actin binding (kcat/Kapp) were estimated from a fit of the data to a hyperbolic function. kcat/Kapp is a direct measure of the coupling efficiency between actin and nucleotide binding and can be determined from the initial slope at F-actin concentrations much smaller than Kapp. […] ATP turn-over rates of Dictyostelium myosin-2 (◯) and Dictyostelium myosin-5b (▪) at increasing F-actin concentrations in the absence (filled symbols) and presence (open symbols) of 25 μM pentabromopseudilin (FIG. 9b):
Protein preparation. Rabbit fast skeletal muscle heavy meromyosin (HMM) was prepared as described by Kron and Spudich^9. Motor domain constructs of myosin-1E, myosin-2, and myosin-5b from Dictyostelium discoideum comprising amino acids 1-698, 1-765, and 1-839 respectively, were prepared as described previouslyl^10-12. Myosin-5a heavy meromyosin from chicken brain was provided by Dr. T. Scholz (Hannover Medical School, Germany) and F-actin was prepared as described by Lehrer and Kerwar^13.
Steady-state kinetics. Basal and actin-activated Mg^2+-ATPase activities were measured with the NADH-coupled assay^19 in a buffer containing 25 mM HEPES, 25 mM KCl, and 4 mM MgCl2, 0.5 mM DTT at pH 7.0 in the presence of 1 mM ATP at 25° C. PBP was added to the reaction mixture in the absence of nucleotide and incubated for 20 minutes before the reaction was started by the addition of ATP. NADH oxidation was followed using the change in absorption at 340 nm in a Beckman DU-800 spectrophotometer.

Series [5] deals with T4, Dictyostelium myosin-2 (Dictyostelium discoideum, UniProt P08799, C312Y/S249N).
T4 construct: comprising amino acids 1-698, 1-765, and 1-839 respectively; made in house
T4 sequence (P08799 1-765 S249N/C312Y): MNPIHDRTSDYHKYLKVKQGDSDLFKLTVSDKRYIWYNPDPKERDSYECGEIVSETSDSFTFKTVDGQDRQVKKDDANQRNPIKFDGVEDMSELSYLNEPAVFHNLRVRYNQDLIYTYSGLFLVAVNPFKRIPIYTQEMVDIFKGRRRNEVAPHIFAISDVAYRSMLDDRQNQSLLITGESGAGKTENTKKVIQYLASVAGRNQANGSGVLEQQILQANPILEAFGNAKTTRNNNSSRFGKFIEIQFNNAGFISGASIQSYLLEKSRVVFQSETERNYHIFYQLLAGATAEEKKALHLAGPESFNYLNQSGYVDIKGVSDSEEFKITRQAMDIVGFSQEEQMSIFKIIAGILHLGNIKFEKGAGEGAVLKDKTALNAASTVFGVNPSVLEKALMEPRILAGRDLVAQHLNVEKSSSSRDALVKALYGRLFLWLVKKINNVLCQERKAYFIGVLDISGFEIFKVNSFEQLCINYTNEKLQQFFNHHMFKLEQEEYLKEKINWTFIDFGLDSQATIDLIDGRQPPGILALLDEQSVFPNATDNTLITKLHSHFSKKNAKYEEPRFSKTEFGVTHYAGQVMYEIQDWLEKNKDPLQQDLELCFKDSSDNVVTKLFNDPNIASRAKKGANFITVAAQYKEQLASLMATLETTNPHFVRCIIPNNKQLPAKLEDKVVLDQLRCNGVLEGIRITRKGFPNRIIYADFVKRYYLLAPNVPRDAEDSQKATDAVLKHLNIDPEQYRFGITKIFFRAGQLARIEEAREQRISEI
Description: Basal ATPase activity, Dictyostelium myosin-2. In kind it is biochemical. The method, then:
(a) Concentrations of […] in the range from 1 to 50 μM activate the basal ATPase activity of Dictyostelium myosin-2 with an apparent half maximum activation constant AC50 of 18 μM. At concentrations of KIN-74>50 μM the basal ATPase activity of Dictyostelium myosin-2 is inhibited with IC50=90 μM.
Compounds KIN-74, KIN-77 are activators of myosin-2 function. KIN-74 activates the ATPase activity of Dictyostelium myosin-2 in the absence of actin. ATPase activity is uncoupled from motor activity in this situation. The apparent half-maximum activation constant AC50 corresponds to 18 μM. Uncouplers have potential applications in inhibiting the overcontraction and overextension of cardiac muscles without being accompanied with a cardioinhibitory action. Therefore, compounds derived from KIN-74 have potential applications in the treatment of acute myocardial infarction helping to prevent the necrosis of cardiac muscles.

Series [6] has as its system Plasmodium merozoites. The series can be described thus: In vitro growth assay, blood stages of malaria. Particulars: 25 μM. In kind it is cell-based.
Series [7] in a line: Development toxicity testing on medaka embryos. As to conditions: medaka, in vivo. On the procedure: (§2) (a) KIN-43 in concentrations between 0.5 μM and 100 μM were incubated for 48 h with 20 medaka embryos per concentration. […] (b) Light microscopy image of embryo after 48 h in the absence of KIN-43.
(§3) We are using a library of common organic molecules and functional groups and are applying an empirical force field description of the nonbonding interactions between a ligand and the binding site in order to build up de novo compounds with spatial and electrostatic properties complementary to the allosteric binding site.

The test system of series [8] is medaka embryos. Description: Development toxicity testing on medaka embryos. The method, then:
as §2, §3

Series [9] in a line: in vitro. Particulars: human. On the procedure: (§4) Cytotoxicity may be assayed by determining the cellular uptake of neutral red. Only living cells are capable of neutral red uptake via an active transport mechanism. For an exemplary workflow of a cytotoxicity assay, see FIG. 16.
(§5) FIG. 16: Cytotoxicity assay.
(§6) FIG. 22: Cytotoxic testing of KIN-compounds by neutral red uptake assays. (a) human hepatocyte carcinoma cells (Hep G2) were exposed to KIN-43 for 4 h in the in presence of 1% FBS.
as §3

Series [10] concerns human hepatocyte carcinoma cells (Hep G2). Description: in vitro. On the procedure:
as §4, §5, §6, §3

In series [11] the test system is Plasmodium sporozoites. Description: Plasmodium sporozoite motility (in vitro imaging). In kind it is cell-based. An excerpt:
FIG. 20: (a) Plasmodium sporozoites adopt motility states, shown in the photos from the left to the right, attached, waving, clockwise (CW), and counterclockwise (CCW). In the absence of inhibitors sporozoites preferably move CW and CCW at 0.97 μm/s and 1.13 μm/s.
Plasmodium sporozoites are moving at very low speed in the salivary glands of infected mosquitoes but are moving at high speed (2 μm/s) upon transmission into the vertebrate host. […] We followed single parasites using in vitro imaging approaches in combination with our bioactive compounds and discovered some intriguing features of sporozoite motility. Under normal conditions sporozoites move in circles, either counterclockwise or clockwise. Two other states of attachment and waving are less populated.

The source of these data is patent US20110105554A1, “MEANS FOR TREATING MYOSIN-RELATED DISEASES” (KINARIS BIOMEDICALS GMBH, priority 2007, published 2011).

Entries after “also recorded” stand apart in the source; their conditions may differ.

T2 sequence (Q03479 1-698): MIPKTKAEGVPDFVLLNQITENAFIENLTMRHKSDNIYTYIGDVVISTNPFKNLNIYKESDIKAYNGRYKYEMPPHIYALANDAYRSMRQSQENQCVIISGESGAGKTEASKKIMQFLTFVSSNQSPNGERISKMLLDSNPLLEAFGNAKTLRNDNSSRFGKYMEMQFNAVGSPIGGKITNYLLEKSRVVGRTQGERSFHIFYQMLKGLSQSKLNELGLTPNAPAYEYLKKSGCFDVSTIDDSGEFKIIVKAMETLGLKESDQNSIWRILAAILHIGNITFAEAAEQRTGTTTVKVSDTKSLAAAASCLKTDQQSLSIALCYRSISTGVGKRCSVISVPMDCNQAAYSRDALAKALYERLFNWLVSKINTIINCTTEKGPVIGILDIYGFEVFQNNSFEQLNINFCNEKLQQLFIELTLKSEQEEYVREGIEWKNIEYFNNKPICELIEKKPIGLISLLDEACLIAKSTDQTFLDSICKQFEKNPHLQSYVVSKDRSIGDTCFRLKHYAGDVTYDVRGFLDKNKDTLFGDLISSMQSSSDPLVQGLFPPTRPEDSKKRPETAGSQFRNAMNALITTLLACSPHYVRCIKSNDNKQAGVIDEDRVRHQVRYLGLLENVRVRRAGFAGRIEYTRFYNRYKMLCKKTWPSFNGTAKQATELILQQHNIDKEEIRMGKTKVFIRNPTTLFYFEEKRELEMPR
T1 sequence (P54697 1-839): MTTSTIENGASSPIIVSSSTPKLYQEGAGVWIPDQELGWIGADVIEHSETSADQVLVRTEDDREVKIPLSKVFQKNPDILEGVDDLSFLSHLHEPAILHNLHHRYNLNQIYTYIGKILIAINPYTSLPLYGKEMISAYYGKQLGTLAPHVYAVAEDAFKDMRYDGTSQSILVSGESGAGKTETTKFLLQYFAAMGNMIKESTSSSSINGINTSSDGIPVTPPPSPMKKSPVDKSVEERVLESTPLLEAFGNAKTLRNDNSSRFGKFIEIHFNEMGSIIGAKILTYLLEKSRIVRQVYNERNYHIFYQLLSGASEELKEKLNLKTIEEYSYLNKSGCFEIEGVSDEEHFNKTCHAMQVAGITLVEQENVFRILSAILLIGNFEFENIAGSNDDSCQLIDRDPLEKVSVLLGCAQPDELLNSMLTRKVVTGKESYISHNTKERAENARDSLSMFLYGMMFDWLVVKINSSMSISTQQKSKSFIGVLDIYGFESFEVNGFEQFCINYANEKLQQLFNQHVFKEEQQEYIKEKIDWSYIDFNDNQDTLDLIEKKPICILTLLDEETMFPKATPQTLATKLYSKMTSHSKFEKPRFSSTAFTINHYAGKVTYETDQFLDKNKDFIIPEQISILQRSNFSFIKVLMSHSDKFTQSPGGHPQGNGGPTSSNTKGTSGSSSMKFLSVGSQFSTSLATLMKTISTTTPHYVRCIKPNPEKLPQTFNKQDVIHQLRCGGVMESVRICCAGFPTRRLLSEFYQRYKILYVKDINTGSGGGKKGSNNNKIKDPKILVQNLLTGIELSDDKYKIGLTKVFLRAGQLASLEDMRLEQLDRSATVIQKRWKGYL

For the molecule `Oc1c(Cl)cc(Cl)cc1-c1[nH]c(Cl)c(Cl)c1Cl` [KIN-68, pentachloropseudilin], the IC50 was 105 µM in [1] and 55.8 µM in series [3]. The “preferred selectivity: fold smaller IC50 compared to fast skeletal muscle myosin-2 and other reference myosins” value in series [2] is listed as “more than 20 fold”.
As for `Oc1c(F)cc(F)cc1-c1[nH]c(Br)c(Br)c1Br` [KIN-74, 2,3,4-tribromo-5 (1′ hydroxy, 2′,4′-difluorophenyl)pyrrole], the values for the IC50 in series [4] and in [5] (at concentrations >50 μM) were 88.8 µM and 90 µM, respectively. In [5] (absence of actin, 1 to 50 μM, read-out: apparent half maximum activation constant AC50, basal ATPase activity), the concentration at half-maximal activity (AC50) came out at 18 µM.
Consider `Oc1cc(F)c(F)c2c1[nH]c1ccc(F)cc12` [KIN-93], for which the “effect on the blood stages of malaria” value in [6] is reported as “reducing the number of Plasmodium merozoites”. In series [7], this molecule showed an LC50 at 48 h greater than 50 µM. In addition, the “lethal effect on medaka embryos” value in series [8] (below 50.0 μM) is given as “no lethal effect”. In addition, in [8] (in vivo), the embryonic development result is given as “not impaired”. The same molecule displayed a CC50 at 4 h in [9] greater than 50 µM. Also, the “neutral red uptake experiments, defects” value in series [10] was “do not reveal any defects”. Further, the “general cytotoxicity for erythrocytes or for Plasmodium sporozoites” value in series [11] is “No general cytotoxicity”. Also, in series [11] (10 μM), the “gliding velocity compared with control parasites” value is reported as “only half as fast”; the “motility states of the sporozoite population” value was “switched the population to attached and waving states; also recorded: strongly reduced”. Besides, in [11] (0.97 μm/s without inhibitor), the “velocity of clockwise (CW) motility” value was 0.58 μm/s. Besides, the “velocity of counterclockwise (CCW) motility” value in [11] (1.13 μm/s without inhibitor) worked out at 0.59 μm/s.
